Test results reported in patent US20090239916A1, “NOVEL DRUG DISCOVERY TARGET AND MEDICINE ACTING ON THE SAME” (Reverse Proteomics Research Institute Co., Ltd, priority 2004, published 2009).
Counter-ions that a name gives are not always drawn.

How the values were obtained:
[1] = molecular target: T1, MFP-2 (Rattus norvegicus, UniProt P97852); assay: Binding experiments: compound-immobilized resins with rat brain lysate, SDS-PAGE and MALDI-TOF identification; conditions: first vs second binding experiment with fresh resin, SDS gel
T1 construct: The supernatant thus obtained was used as the lysate; from tissue; host or cells: rat brain
T1 sequence (P97852 1-735): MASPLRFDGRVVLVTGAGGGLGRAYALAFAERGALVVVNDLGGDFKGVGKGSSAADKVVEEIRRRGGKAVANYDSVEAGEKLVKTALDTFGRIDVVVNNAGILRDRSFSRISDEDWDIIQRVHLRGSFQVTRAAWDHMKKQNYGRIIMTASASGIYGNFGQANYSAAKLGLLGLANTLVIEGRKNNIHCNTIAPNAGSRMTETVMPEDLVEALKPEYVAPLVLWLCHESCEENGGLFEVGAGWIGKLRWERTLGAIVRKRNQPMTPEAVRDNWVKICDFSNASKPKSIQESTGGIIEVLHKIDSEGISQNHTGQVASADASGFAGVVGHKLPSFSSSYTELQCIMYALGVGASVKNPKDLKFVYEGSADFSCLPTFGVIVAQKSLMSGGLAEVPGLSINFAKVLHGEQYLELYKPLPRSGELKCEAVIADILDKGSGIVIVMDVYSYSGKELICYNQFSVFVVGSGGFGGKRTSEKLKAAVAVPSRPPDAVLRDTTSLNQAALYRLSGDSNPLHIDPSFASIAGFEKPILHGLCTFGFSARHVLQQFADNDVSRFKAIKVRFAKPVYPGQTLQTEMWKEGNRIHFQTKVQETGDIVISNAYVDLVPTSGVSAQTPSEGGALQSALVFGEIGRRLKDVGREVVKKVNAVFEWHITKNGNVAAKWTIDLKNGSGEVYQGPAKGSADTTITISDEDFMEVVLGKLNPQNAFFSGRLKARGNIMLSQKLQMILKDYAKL
Method: The rat brain (2.4 g) was mixed in a mixed solution A (25 mM Tris-HCl pH 8.0, 0.5% Tween 20, 300 μM DCC (24 ml; N,N-diethyldithiocarbamate sodium)) and prepared as a homogenate, which was then centrifuged at 9,000 rpm for 10 minutes. The centrifugal supernatant was collected and further centrifuged at 50,000 rpm for 30 minutes. The supernatant thus obtained was used as the lysate. Note that all experiments were performed at 4° C. or on ice.
Binding experiments were performed using the immobilizing resins with each test compound immobilized thereon, prepared in Examples 1 to 2, and the rat brain lysate prepared in Example 3(1), per the procedures shown below.
Each resin (10 μl) and lysate (1 ml) were gently shaken at 4° C. for about 1 hour. Thereafter, centrifugal operation was performed, and each supernatant was collected carefully. Then, each supernatant was again mixed with a fresh compound-bound resin (10 μl). At this time, the separated compound-bound resin was gently stored at 4° C. as the resin of the first binding experiment. After the mixture was gently stirred for about 1 hour, centrifugal operation was performed, and the supernatant was removed. […] The sample solution thus obtained was separated using a commercially available SDS gel (BioRad readyGel J, 10% SDS, cat. NO=161-J341), and the SDS gel was analyzed (FIG. 2). […]

[2] = molecular target: T2, recombinant MFP-2 (Homo sapiens, UniProt P51659); assay: Measurement of Kd value between MFP-2 and Intal using Biacore; assay type: binding; conditions: Biacore 3000; Intal-immobilized gold chip; MFP-2 25, 12.5 and 6.25 nM; global fitting
T2 construct: His-tag (N); made in house; host or cells: E. coli (pDEST17, GATEWAY system)
T2 sequence (P51659 1-736): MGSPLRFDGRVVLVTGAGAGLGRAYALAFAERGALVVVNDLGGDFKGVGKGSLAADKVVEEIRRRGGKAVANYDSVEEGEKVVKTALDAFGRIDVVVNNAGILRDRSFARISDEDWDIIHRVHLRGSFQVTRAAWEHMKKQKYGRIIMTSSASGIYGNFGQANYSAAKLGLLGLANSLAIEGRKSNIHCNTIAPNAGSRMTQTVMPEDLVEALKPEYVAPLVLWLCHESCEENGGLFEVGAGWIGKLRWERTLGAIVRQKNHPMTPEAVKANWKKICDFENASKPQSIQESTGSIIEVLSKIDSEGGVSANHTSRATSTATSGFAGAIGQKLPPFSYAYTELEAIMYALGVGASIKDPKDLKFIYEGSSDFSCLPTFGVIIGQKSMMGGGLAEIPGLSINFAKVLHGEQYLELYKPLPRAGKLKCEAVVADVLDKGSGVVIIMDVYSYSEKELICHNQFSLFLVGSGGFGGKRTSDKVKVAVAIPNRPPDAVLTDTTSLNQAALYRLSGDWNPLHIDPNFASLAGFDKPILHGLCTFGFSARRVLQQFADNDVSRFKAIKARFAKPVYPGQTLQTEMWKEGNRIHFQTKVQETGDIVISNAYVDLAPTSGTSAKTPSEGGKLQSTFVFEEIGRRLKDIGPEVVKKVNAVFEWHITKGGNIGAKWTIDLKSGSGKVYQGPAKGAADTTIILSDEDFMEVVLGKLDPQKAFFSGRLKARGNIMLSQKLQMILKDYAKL
Method: The SIA kit Au from Biacore Company (#BR-1004-05) was immersed in Piranha solution (25% H2O2, 75% H2SO4) in a glass dish, and washed with shaking for 3 hours. Next, this chip was washed with Milli-Q Water and ethanol, and allowed to stand overnight as immersed in an ethanol solution (1.5 mM) of 11-amino-1-undecanethiol hydrochloride (Dojindo, #A423). After this was washed with N-methylpyrrolidone (NMP), it was placed in an NMP solution containing N-Fmoc-amido-dPEG4™-acid (50 mM), PyBop (50 mM) and diisopropylethylamine (Pr2Net; 100 mM) and shaken for 16 hours to cause the reaction. After the mixture was washed with NMP, the reaction was allowed to proceed in an acetonitrile (MeCN) solution containing acetic acid (10 mM), HOBt (10 mM) and WSCI (water-soluble carbodiimide; 10 mM) for 5.5 hours. […]
An entry vector was prepared using the GATEWAY system from Invitrogen Company, and recombinant MFP-2 was expressed as a protein with N-terminal His-tag using an E. coli expression system (pDEST17). […]
The Kd value was measured using Biacore 3000. […]
After data were measured, differences from the control were determined using analytical software (BIACORE Company, BIA evaluation ver 4.1) and analyzed by global fitting to calculate the Kd value. As a result, the value was determined to be 0.64 nM.

binding of MFP-2 to the compound-immobilized resin [1]	Kd [2]	SMILES
specific binding		O=C(Cn1c(=O)sc2ccc(Cl)cc21)N1CCN(CCO)CC1 [tiaramide]
specific binding	0.64 nM	O=C(O)c1cc(=O)c2c(OCC(O)COc3cccc4oc(C(=O)O)cc(=O)c34)cccc2o1 [Intal, disodium salt of 1,3-bis(2-carboxychromon-5-yloxy)-2-hydroxypropane]
